Literature values in patent US20070298008A1, “Method of bowel cleansing” (Braintree Laboratories, Inc., priority 2002, published 2007).
Read-outs that look alike come from different tables or passages of the source.

Test system: intestines and rectum

CC(=O)Oc1ccc(C(c2ccc(OC(C)=O)cc2)c2ccccn2)cc1 [Bisacodyl]
Time to produce a bowel movement (enema): about 20 minutes | Time to produce a bowel movement (suppository): about an hour
